Data published in patent EP0422215B1, “ANTIBACTERIAL AND AN[…]” (THE ROCKEFELLER UNIVERSITY, priority 1989, dated 1990).

Assays:
Type in all cases: cell-based
[1] = system: B. subtilis Bsll; conditions: overnight incubation at 30°C; for LETHAL CONCENTRATION Bsll + ME: B. subtilis, plates prepared with medium E; for LETHAL CONCENTRATION Bsll: Bsll = B. subtilis, thin agarose plates
Experimental: (§1) The products of the invention were tested for activity against a variety of test organisms selected to represent a number of different types of pathogens some of them known to be particularly virulent by the inhibition zone assay of Hoffmann et al. (1981) Insect Biochem. 11 537-548. Thin agar or agarose plates (8.5 cm diameter) were prepared with 6 ml of rich medium containing 100 µg/ml of streptomycin and 2 x 10^5 viable cells of a test organism resistant to streptomycin. Wells of […] were punched in the plates and 3 µl of serially diluted samples were placed in the wells. The diameters of the zones of inhibition around the wells were measured after overnight incubation at 30° or 37°C. For each peptide the squares of the zone diameters were plotted against the logarithm of the concentration, and from the slopes and intercepts the lethal concentrations were calculated as described by Hultmark (1983) EMBO J. 2, 571-76 or Hultmark et al. (1982) Eur. J. Biochem. 127 207-217.
(§2) Novel peptides CA(1-8)M(1-18), CA(1-9)M(1-17), CB(1-13)M(1-13), CA(1-17)M(1-9), CA(1-18)M(1-8), M(1-13)CA(1-22) and M(1-13)CA(1-13) were prepared as described above (see Examples 1-6). These novel peptides and CA, CB, and M were tested for activity against a variety of organisms selected to represent a number of different types of pathogens, some of them known to be particularly virulent, by the inhibition zone assay of Hoffmann et al. (1981), Insect Biochem. 11 537-48. As in Examples 1-6, thin agarose plates were prepared with the respective organisms. The diameters of the zones of inhibition were measured after overnight incubation at 30°C. The lethal concentrations were determined as described above (see Examples 1-6; Hultmark et al. articles cited thereat).

[2] = system: E. coli D21; conditions: thin agarose plates, overnight incubation at 30°C
Experimental: as §1, §2

[3] = system: P. aeruginosa OT97; conditions: thin agarose plates, overnight incubation at 30°C
Experimental: as §1, §2

[4] = system: S. aureus Cowan I; conditions: thin agarose plates, 30°C, * indicates flat concentration dependence
Experimental: as §1, §2

[5] = system: S. pyogenes; conditions: thin agarose plates, overnight incubation at 30°C
Experimental: as §1, §2

[6] = system: Sheep Red Cells; assay: lysis of sheep red blood cells (lysis assay or inhibition zone plate assay with SRC); conditions: for LETHAL CONCENTRATION SRC: SRC = Sheep Red Cells, ? indicates turbid zone (melittin gives clear zone); for concentration lytic to sheep red blood cells: stated in running text
Experimental: These values were obtained by either the lysis assay normally used for melittin or by an adaptation of the antibacterial inhibition zone assay of the above-cited Hultmark et al. articles to plates with sheep red cells (SRC). With respect to the latter, sterile agarose plates contained 6 ml of medium with 1% agarose, 0.9% NaCl and 10% SRC suspended in Alsevers solution. A dilution series of peptide was applied in 3mm wells each loaded with 3 µl of the respective samples. The plates were incubated at 30°C for 24 h, the zones were recorded and LC values calculated as described in the Hultmark et al. articles. Clear zones were recorded after a few hours of incubation and the use of such data gave an LC value of the same order as readings after 24 h. This plate assay is faster and more convenient than the lysis assay normally used for melittin.

Compound | LETHAL CONCENTRATION Bsll + ME [1] [µM] | LETHAL CONCENTRATION Bsll [1] [µM] | LETHAL CONCENTRATION D21 [2] [µM] | LETHAL CONCENTRATION OT97 [3] [µM] | LETHAL CONCENTRATION Staph [4] | LETHAL CONCENTRATION Strep [5] [µM] | LETHAL CONCENTRATION SRC [6] | concentration lytic to sheep red blood cells [6] [µM] | concentration lytic to sheep red blood cells ([6]; listed as CA(1-13) M(1-13)) | fold improvement over natural melittin in lysis of red cells ([6]; compared with melittin)
CC[C@H](C)[C@H](NC(=O)CNC(=O)[C@@H](NC(=O)[C@H](CCCCN)NC(=O)[C@H](CCCCN)NC(=O)[C@H](Cc1ccccc1)NC(=O)[C@H](CC(C)C)NC(=O)[C@H](CCCCN)NC(=O)[C@H](Cc1c[nH]c2ccccc12)NC(=O)[C@@H](N)CCCCN)[C@@H](C)CC)C(=O)NCC(=O)N[C@@H](C)C(=O)N[C@H](C(=O)N[C@@H](CC(C)C)C(=O)N[C@@H](CCCCN)C(=O)N[C@H](C(=O)N[C@@H](CC(C)C)C(=O)N[C@H](C(=O)N[C@H](C(=O)NCC(=O)N[C@@H](CC(C)C)C(=O)N1CCC[C@H]1C(=O)N[C@@H](C)C(=O)N[C@@H](CC(C)C)C(=O)N[C@H](C(=O)N[C@@H](CO)C(N)=O)[C@@H](C)CC)[C@@H](C)O)[C@@H](C)O)C(C)C)C(C)C [CA(1-8)M(1-18)] | 0.5 | 0.4 | 0.3 | 0.7 | 1 µM | 2 | >600 µM | – | – | –
CC[C@H](C)[C@H](NC(=O)CN)C(=O)NCC(=O)N[C@@H](C)C(=O)N[C@H](C(=O)N[C@@H](CC(C)C)C(=O)N[C@@H](CCCCN)C(=O)N[C@H](C(=O)N[C@@H](CC(C)C)C(=O)N[C@H](C(=O)N[C@H](C(=O)NCC(=O)N[C@@H](CC(C)C)C(=O)N[C@@H](CCCCN)C(=O)N[C@@H](Cc1c[nH]c2ccccc12)C(=O)N[C@@H](CCCCN)C(=O)N[C@@H](CC(C)C)C(=O)N[C@@H](Cc1ccccc1)C(=O)N[C@@H](CCCCN)C(=O)N[C@@H](CCCCN)C(=O)N[C@H](C(=O)N[C@@H](CCC(=O)O)C(=O)N[C@@H](CCCCN)C(=O)N[C@H](C(=O)NCC(=O)N[C@@H](CCC(N)=O)C(N)=O)C(C)C)[C@@H](C)CC)[C@@H](C)O)[C@@H](C)O)C(C)C)C(C)C [M(1-13)CA(1-13)] | 0.1 | 0.3 | 1 | 5 | 5* µM | 1 | 80? µM | – | – | –
CC[C@H](C)[C@H](NC(=O)CNC(=O)[C@H](CCC(N)=O)NC(=O)CNC(=O)[C@@H](NC(=O)[C@H](CCCCN)NC(=O)[C@H](CCC(=O)O)NC(=O)[C@@H](NC(=O)[C@H](CCCCN)NC(=O)[C@H](CCCCN)NC(=O)[C@H](Cc1ccccc1)NC(=O)[C@H](CC(C)C)NC(=O)[C@H](CCCCN)NC(=O)[C@H](Cc1c[nH]c2ccccc12)NC(=O)[C@@H](N)CCCCN)[C@@H](C)CC)C(C)C)C(=O)NCC(=O)N[C@@H](C)C(=O)N[C@H](C(=O)N[C@@H](CC(C)C)C(=O)N[C@@H](CCCCN)C(=O)N[C@H](C(=O)N[C@@H](CC(C)C)C(=O)N[C@H](C(=O)N[C@H](C(=O)NCC(=O)N[C@@H](CC(C)C)C(N)=O)[C@@H](C)O)[C@@H](C)O)C(C)C)C(C)C [CA(1-13)M(1-13)] | – | – | – | – | – | – | – | > 100 | greater than 200 µM | –
CC[C@H](C)[C@H](NC(=O)CN)C(=O)NCC(=O)N[C@@H](C)C(=O)N[C@H](C(=O)N[C@@H](CC(C)C)C(=O)N[C@@H](CCCCN)C(=O)N[C@H](C(=O)N[C@@H](CC(C)C)C(=O)N[C@H](C(=O)N[C@H](C(=O)NCC(=O)N[C@@H](CC(C)C)C(=O)N[C@@H](CCCCN)C(=O)N[C@@H](Cc1c[nH]c2ccccc12)C(=O)N[C@@H](CCCCN)C(=O)N[C@@H](CC(C)C)C(=O)N[C@@H](Cc1ccccc1)C(=O)N[C@@H](CCCCN)C(=O)N[C@@H](CCCCN)C(=O)N[C@H](C(=O)N[C@@H](CCC(=O)O)C(=O)N[C@@H](CCCCN)C(=O)N[C@H](C(=O)NCC(=O)N[C@@H](CCC(N)=O)C(=O)N[C@@H](CC(N)=O)C(=O)N[C@H](C(=O)N[C@@H](CCCNC(=N)N)C(=O)N[C@@H](CC(=O)O)C(=O)NCC(=O)N[C@H](C(=O)N[C@H](C(=O)N[C@@H](CCCCN)C(=O)N[C@@H](C)C(N)=O)[C@@H](C)CC)[C@@H](C)CC)[C@@H](C)CC)C(C)C)[C@@H](C)CC)[C@@H](C)O)[C@@H](C)O)C(C)C)C(C)C [M(1-13)CA(1-22)] | 0.2 | – | 0.7 | – | 5* µM | 1 | 40? µM | – | – | –
CC[C@H](C)[C@H](NC(=O)CNC(=O)[C@@H]1CCCN1C(=O)CNC(=O)[C@H](C)NC(=O)[C@H](CCCCN)NC(=O)[C@@H](NC(=O)[C@@H](NC(=O)CNC(=O)[C@H](CC(=O)O)NC(=O)[C@H](CCCNC(=N)N)NC(=O)[C@@H](NC(=O)[C@H](CC(N)=O)NC(=O)[C@H](CCC(N)=O)NC(=O)CNC(=O)[C@@H](NC(=O)[C@H](CCCCN)NC(=O)[C@H](CCC(=O)O)NC(=O)[C@@H](NC(=O)[C@H](CCCCN)NC(=O)[C@H](CCCCN)NC(=O)[C@H](Cc1ccccc1)NC(=O)[C@H](CC(C)C)NC(=O)[C@H](CCCCN)NC(=O)[C@H](Cc1c[nH]c2ccccc12)NC(=O)[C@@H](N)CCCCN)[C@@H](C)CC)C(C)C)[C@@H](C)CC)[C@@H](C)CC)[C@@H](C)CC)C(=O)NCC(=O)N[C@@H](C)C(=O)N[C@H](C(=O)N[C@@H](CC(C)C)C(=O)N[C@@H](CCCCN)C(=O)N[C@H](C(=O)N[C@@H](CC(C)C)C(=O)N[C@H](C(=O)N[C@H](C(=O)NCC(=O)N[C@@H](CC(C)C)C(N)=O)[C@@H](C)O)[C@@H](C)O)C(C)C)C(C)C [CA(1-24)M(1-13)] | – | – | – | – | – | – | – | > 100 | – | –
CC[C@H](C)[C@H](NC(=O)CNC(=O)[C@H](CCC(N)=O)NC(=O)[C@H](CCC(N)=O)NC(=O)[C@H](CCCNC(=N)N)NC(=O)[C@H](CCCCN)NC(=O)[C@H](CCCNC(=N)N)NC(=O)[C@H](CCCCN)NC(=O)[C@@H](NC(=O)[C@H](Cc1c[nH]c2ccccc12)NC(=O)[C@H](CO)NC(=O)[C@@H](NC(=O)[C@@H](N)CC(C)C)[C@@H](C)CC)[C@@H](C)CC)C(=O)NCC(=O)N[C@@H](C)C(=O)N[C@H](C(=O)N[C@@H](CC(C)C)C(=O)N[C@@H](CCCCN)C(=O)N[C@H](C(=O)N[C@@H](CC(C)C)C(=O)N[C@H](C(=O)N[C@H](C(=O)NCC(=O)N[C@@H](CC(C)C)C(N)=O)[C@@H](C)O)[C@@H](C)O)C(C)C)C(C)C [M(16-26)M(1-13)] | – | – | – | – | – | – | – | > 240 | – | 40-60 fold
